# Test results from patent publication US5428059A, “Benzopyran derivatives and an anti-allergic agent possessing the same as the active ingredient” (Dainippon Ink & Chemicals, Inc., priority 1991, dated 1995).
# System: Hartley-type male guinea pigs
# Assay: Guinea Pig Homogeneous Skin Passive Anaphylaxis Assay (PCA reaction)
# Type: in vivo, guinea pig (Hartley-type)
# Details: Cavia porcellus, 10 mg/kg oral, 48 h after sensitization, read-out: Allergic reaction inhibitory index (%)
# Description: In order to confirm the anti-allergic action of the compounds according to the present invention, as an anti-allergic action confirmation assay, the widely used Guinea Pig Homogeneous Skin Passive Anaphylaxis Assay (PCA Reaction Assay; Passive Cutaneous Anaphylaxis Reaction Assay) was carried out. The assay method used will be explained in the following.
# Assay method: Hartley-type male guinea pigs (body weight: 250~300 g) were sensitized by the following procedure; a mixture of 2 μg of egg albumin (OVA) and 5 μg of aluminium hydroxide gel was administered intraperitoneally 3 times every 2 weeks, and the anti-OVA blood serum was manufactured.
# The anti-blood serum obtained was then diluted 120 times using physiological saline solution, and then to groups each containing 6 shaved guinea pigs, was injected at a quantity of 0.05 ml respectively, into two positions in the back portion, inside the skin of each animal.
# After the 48th hour of sensitization, 10 mg/kg of the test substance to be tested was orally administered, following which a mixture of 2 mg OVA and 5 mg of Evans Blue was administered by intraveneous injection into the hind leg, triggering the anaphylaxis reaction. As the positive control, Tranilast, a well known anti-allergic agent, was used, and in the same manner as the substances to be tested, 100 mg/kg of it was orally administered after the 48th hour of sensitization.
# 30 minutes after triggering the reaction, the animals were bled to death under ether anesthesia, and their back portion skins were peeled off. The long and short diameters of pigment leakage spots on the interior surface of the skins were measured, and the product of these (mm^2) were entered into formula 1 as "pigment leakage amount", from which the allergic reaction inhibitory index wins calculated. [formula]
# I: Allergic reaction inhibitory index (%)
# A: Pigment leakage amount of solvent control group
# B: Pigment leakage amount of test substance group
# C: Pigment leakage amount of […]
row,Structure (SMILES),inhibition in vivo at 10 mg/kg [%]
1,"COc1ccc2c(OC/C=C(\C)CCC=C(C)C)c(O)c(=O)oc2c1 [Compound 38, 3-hydroxy-4-(geranyloxy)-7-(methoxy)-2H-1-benzopyran-2-one]",31
2,"CCCCCCCCCCOc1c(O)c(=O)oc2ccc(OC)cc12 [Compound 276, 3-(hydroxy)-4-(decyloxy)-6-(methoxy)-2H-1-benzopyran-2-one]",34
3,"CCCCCCCCCCOc1cccc2c(O)c(OC/C=C(\C)CCC=C(C)C)c(=O)oc12 [Compound 151, 3-(geranyloxy)-4-hydroxy-8-(decyloxy)-2H-1-benzopyran-2-one]",34
4,"CCCCOc1cccc2oc(=O)c(OC(=O)c3ccccc3)c(O)c12 [Compound 226, 3-(benzoyloxy)-4-hydroxy-5-(butoxy)-2H-1-benzopyran-2-one]",33
5,"COc1cccc2c(OC(=O)c3ccccc3)c(OC(C)=O)c(=O)oc12 [Compound 114, 3-(acetoxy)-4-(benzoyloxy)-8-(methoxy)-2H-1-benzopyran-2-one]",31
6,"CC(=O)Oc1c(OC/C=C(\C)CCC=C(C)C)c(=O)oc2c(O)cccc12 [Compound 104, 3-(geranyloxy)-4-(acetoxy)-8-hydroxy-2H-1-benzopyran-2-one]",32
7,"CCCCCCCCCCOc1cccc2c(OC)c(OC/C=C(\C)CCC=C(C)C)c(=O)oc12 [Compound 155, 3-(geranyloxy)-4-(methoxy)-8-(decyloxy)-2H-1-benzopyran-2-one]",30
8,"CCCCOc1cccc2c(O)c(OC(=O)c3ccccc3)c(=O)oc12 [Compound 127, 3-(benzoyloxy)-4-hydroxy-8-(butyloxy)-2H-1-benzopyran-2-one]",34
9,"CC(C)=CCC/C(C)=C/COc1c(O)c(=O)oc2c(O)cccc12 [Compound 103, 3,8-(dihydroxy)-4-(geranyloxy)-2H-1-benzopyran-2-one]",30
10,"COc1cccc2oc(=O)c(OC(C)=O)c(OC)c12 [Compound 201, 3-(acetoxy)-4,5-(dimethoxy)-2H-1-benzopyran-2-one]",31
11,CCCCCCCCCCOc1c(O)c2cc(OC)ccc2oc1=O [Compound 274],35
12,"CC(=O)Oc1c(OC/C=C(\C)CCC=C(C)C)c(=O)oc2cc(OC/C=C(\C)CCC=C(C)C)ccc12 [Compound 85, 3,7-(digeranyloxy)-4-(acetoxy)-2H-1-benzopyran-2-one]",33
13,"COc1ccc2c(O)c(OC/C=C(\C)CCC=C(C)C)c(=O)oc2c1 [Compound 37, 3-(geranyloxy)-4-hydroxy-7-(methoxy)-2H-1-benzopyran-2-one]",40
14,"CC(C)=CCC/C(C)=C/COc1cccc2oc(=O)c(OC(C)C)c(OC/C=C(\C)CCC=C(C)C)c12 [Compound 258, 3-(isopropoxy)-4,5-(digeranyloxy)-2H-1-benzopyran-2-one]",32
15,"CC(=O)Oc1c(OC/C=C(\C)CCC=C(C)C)c(=O)oc2cccc(OC/C=C(\C)CCC=C(C)C)c12 [Compound 255, 3,5-(digeranyloxy)-4-(acetoxy)-2H-1-benzopyran-2-one]",33
16,"CC(C)=CCC/C(C)=C/COc1ccc2c(O)c(OC(=O)c3ccccc3)c(=O)oc2c1 [Compound 74, 3-(benzoyloxy)-4-hydroxy-7-(geranyloxy)-2H-1-benzopyran-2-one]",34
17,"O=c1oc2c(O)cccc2c(O)c1O [Compound 93, 3,4,8-trihydroxy-2H-1-benzopyran-2-one]",42

row,Structure (SMILES),inhibition in vivo at 10 mg/kg [%]
1,"CC(=O)Oc1c(OC(=O)c2ccccc2)c(=O)oc2cccc(OC/C=C(\C)CCC=C(C)C)c12 [Compound 247, 3-(benzoyloxy)-4-(acetoxy)-5-(geranyloxy)-2H-1-benzopyran-2-one]",34
2,"CC(C)=CCC/C(C)=C/COc1cccc2oc(=O)c(OC(=O)c3ccccc3)c(OC/C=C(\C)CCC=C(C)C)c12 [Compound 256, 3-(benzoyloxy)-4,5-(digeranyloxy)-2H-1-benzopyran-2-one]",30
3,"CC(C)Oc1ccc2c(OC(=O)c3ccccc3)c(OC(=O)c3ccccc3)c(=O)oc2c1 [Compound 47, 3,4-(dibenzoyloxy)-7-(isopropoxy)-2H-1-benzopyran-2-one]",31
4,"CCCCCCCCCCOc1ccc2c(OC)c(OC/C=C(\C)CCC=C(C)C)c(=O)oc2c1 [Compound 71, 3-(geranyloxy)-4-(methoxy)-7-(decyloxy)-2H-1-benzopyran-2-one]",30
5,"COc1cccc2c(O)c(O)c(=O)oc12 [Compound 111, 3,4-(dihydroxy)-8-(methoxy)-2H-1-benzopyran-2-one]",38
6,"CCCCCCCCCCOc1ccc2c(O)c(OC(=O)c3ccccc3)c(=O)oc2c1 [Compound 58, 3-(benzoyloxy)-4-hydroxy-7-(decyloxy)-2H-1-benzopyran-2-one]",38
7,"CC(C)=CCC/C(C)=C/COc1c(O)c2cccc(O)c2oc1=O [Compound 102, 3-(geranyloxy)-4,8-(dihydroxy)-2H-1-benzopyran-2-one]",35
8,"CCCCCCCCCCOc1cccc2c(O)c(OC(C)C)c(=O)oc12 [Compound 147, 3-(isopropoxy)-4-hydroxy-8-(decyloxy)-2H-1-benzopyran-2-one]",30
9,"CCCCCCCCCCOc1c(O)c2ccc(O)cc2oc1=O [Compound 16, 3-(decyloxy)-4,7-(dihydroxy)-2H-1-benzopyran-2-one]",40
10,"COc1cccc2oc(=O)c(OC/C=C(\C)CCC=C(C)C)c(OC(=O)c3ccccc3)c12 [Compound 205, 3-(geranyloxy)-4-(benzoyloxy)-5-(methoxy)-2H-1-benzopyran-2-one]",31
11,"CC(C)=CCC/C(C)=C/COc1cccc2c(O)c(O)c(=O)oc12 [Compound 159, 3,4-(hydroxy)-8-(geranyloxy)-2H-1-benzopyran-2-one]",36
12,"CC(C)=CCC/C(C)=C/COc1ccc2c(OC(C)C)c(O)c(=O)oc2c1 [Compound 79, 3-hydroxy-4-(isopropoxy)-7-(geranyloxy)-2H-1-benzopyran-2-one]",32
13,"COc1c(OC/C=C(\C)CCC=C(C)C)c(=O)oc2c(OC/C=C(\C)CCC=C(C)C)cccc12 [Compound 171, 3,8-(digeranyloxy)-4-(methoxy)-2H-1-benzopyran-2-one]",33
14,"CC(C)Oc1cccc2oc(=O)c(OC(=O)c3ccccc3)c(O)c12 [Compound 210, 3-(benzoyloxy)-4-hydroxy-5-(isopropoxy)-2H-1-benzopyran-2-one]",40
15,"CC(=O)Oc1c(OC(=O)c2ccccc2)c2cccc(O)c2oc1=O [Compound 96, 3-(acetoxy)-4-(benzoyloxy)-8-hydroxy-2H-1-benzopyran-2-one]",32
16,"COc1cccc2c(OC(C)C)c(OC/C=C(\C)CCC=C(C)C)c(=O)oc12 [Compound 124, 3-(geranyloxy)-4-(isopropoxy)-8-(methoxy)-2H-1-benzopyran-2-one]",33
17,"COc1cccc2oc(=O)c(OC/C=C(\C)CCC=C(C)C)c(OC(C)C)c12 [Compound 207, 3-(geranyloxy)-4-(isopropoxy)-5-(methoxy)-2H-1-benzopyran-2-one]",33
